From PMC8566969, “Comparison of viral RNA–host protein interactomes across pathogenic RNA viruses informs rapid antiviral drug discovery for SARS-CoV-2” (Cell Research, 2021)
Like-named read-outs stand apart in the source and are kept apart here.

Columns and labels:
[1] = tested on: SARS-CoV-2 B.1.351 variant
[2] = tested on: SARS-CoV-2 B.1.351 variant; experiment: microbe, parasite or virus in culture; details: Severe acute respiratory syndrome coronavirus 2, A549-ACE2, 48 h, read-out: IC50, SARS-CoV-2 B.1.351
[3] = tested on: SARS-CoV-2 B.1.351 variant; experiment: microbe, parasite or virus in culture; type: cell-based; details: Severe acute respiratory syndrome coronavirus 2, Huh-7.5.1, 48 h, read-out: IC50, SARS-CoV-2 B.1.351 in Huh7.5.1 cells

Row | Structure (SMILES) | Inhibitory effect in B.1.351-infected cells (in words) [1] | SI (CC50/IC50), SARS-CoV-2 B.1.351 [1] | IC50 [2] [nM] | IC50 [3] [nM]
1 | CN1CCN(CCCN2c3ccccc3Sc3ccc(C(F)(F)F)cc32)CC1 [Trifluoperazine] | exerted inhibitory effects | 13.25 | 2790 | 
2 | CNC(=O)c1cc(Oc2ccc(NC(=O)Nc3ccc(Cl)c(C(F)(F)F)c3)cc2)ccn1 [Sorafenib] | exerted inhibitory effects | 7.6 | 1700 | 
3 | COc1cc2c(cc1OC)[C@@H]1C(=O)c3ccc4c(c3O[C@@H]1CO2)C=CC(C)(C)O4 [Deguelin] | exerted inhibitory effects | 7.44 | 4670 | 
4 | COc1ccc2cc1Oc1ccc(cc1)C[C@H]1c3c(cc4c(c3Oc3cc5c(cc3OC)CCN(C)[C@@H]5C2)OCO4)CCN1C [Cepharanthine] | exerted inhibitory effects | 128.83 | 240 | 60
